# The NIST ThermoML archive (doi:10.1016/j.jct.2016.06.023)
# Numbers after ± are expanded uncertainties.
# Tests used:
# [1] = 101.3 kPa, Liquid, Vibrating tube method
# [2] = mn = molality of the nth substance listed, in mol/kg; settings: 101.3 kPa, Liquid, Vibrating tube method, m2 = 0
SMILES,mass density ([1]; 278.15 K),mass density ([1]; 283.15 K),mass density ([1]; 308.15 K),mass density ([1]; 328.15 K),mass density ([1]; 333.15 K),mass density ([1]; 338.15 K),mass density ([1]; 343.15 K),mass density ([2]; 278.15 K),mass density ([2]; 283.15 K),mass density ([2]; 308.15 K),mass density ([2]; 328.15 K),mass density ([2]; 333.15 K),mass density ([2]; 338.15 K),mass density ([2]; 343.15 K)
O [water],999.99 ± 0.4 kg/m3,999.73 ± 0.41 kg/m3,994.06 ± 0.41 kg/m3,985.73 ± 0.4 kg/m3,983.24 ± 0.4 kg/m3,980.59 ± 0.4 kg/m3,977.81 ± 0.4 kg/m3,–,–,–,–,–,–,–
O [water] + O=C(O)CC(=O)O,–,–,–,–,–,–,–,999.99 ± 0.4 kg/m3,999.73 ± 0.41 kg/m3,994.06 ± 0.41 kg/m3,985.73 ± 0.4 kg/m3,983.24 ± 0.4 kg/m3,980.59 ± 0.4 kg/m3,977.81 ± 0.4 kg/m3
